Assay results as given in article PMC4836297, “Leveraging family-specific signatures for AMP discovery and high-throughput annotation” (Scientific Reports, 2016).
Where two headings read alike, the source gives them in different places. Marks after values point to notes of the source that are not given here. Residues, ends and D or L forms follow the SMILES beside them.

Assays:
[1] = system: E. coli 25922 (NCIM 2931); type: cell-based, Escherichia coli; details: for MIC (*50% inhibition): starred value: 50% inhibition only
Experimental: (§1) Antimicrobial activity of the synthesized peptides was determined by broth microdilution assay and evaluated based on minimum inhibitory concentration (MIC). […] Gram negative microorganisms (Escherichia coli ATCC 8739, Escherichia coli ATCC 25922) were grown in Mueller-Hinton (MH) broth at 37 °C for 18h on a shaker to obtain an OD600nm of 0.8. Bacterial cultures were diluted in MH broth to obtain a cell density of 10^5–10^6 c.f.u/ml. Different concentrations of peptides, ranging from 1–100 μM were serially diluted in MH broth and inoculated with bacterial cultures in 1:1 ratio in sterile 96-well microtiter plates. The plates were incubated at 37 °C for 18h and antimicrobial activity was evaluated as MIC of the peptides by determining the absorbance at 600nm. The microorganisms were obtained from National Collection of Industrial Microorganisms (NCIM), Pune.

E. coli 8739 (NCIM 2065) = type: cell-based, Escherichia coli; details: for MIC (*50% inhibition): starred value: 50% inhibition only; for inhibition at 100 microM: 8739 (NCIM 2065, 18 h, 100 microM)
Experimental: as §1

[2] = Escherichia coli ATCC 25922, complete growth inhibition, MH broth, 10^5–10^6 c.f.u/ml, peptides 1–100 μM, 37 °C 18h, absorbance at 600nm, average range, triplicates of three independent experiments
[3] = Escherichia coli ATCC 8739, MH broth, 37 °C 18h, absorbance at 600nm, average range, triplicates of three independent experiments
[4] = Escherichia coli ATCC 25922, MH broth, 37 °C 18h, absorbance at 600nm, average range, triplicates of three independent experiments
[5] = Escherichia coli ATCC 8739, complete growth inhibition, MH broth, 10^5–10^6 c.f.u/ml, peptides 1–100 μM, 37 °C 18h, absorbance at 600nm, average range, triplicates of three independent experiments

Compound	MIC [1, 2]	MIC (*50% inhibition) (E. coli 8739 (NCIM 2065); [3])	MIC (*50% inhibition) [1, 4]	MIC (E. coli 8739 (NCIM 2065); 8739 (NCIM 2065, 18 h)) [µM]	inhibition at 100 microM (E. coli 8739 (NCIM 2065)) [%]	antimicrobial activity (in words) ([1]; Escherichia coli ATCC 25922)	antimicrobial activity (in words) (E. coli 8739 (NCIM 2065); Escherichia coli ATCC 8739)	MIC (E. coli 8739 (NCIM 2065); [5])	other results
PLSCRRKIGICVLIRCSGNMRQIGTCLGALVKCCR [DefH, 35-residue defensin family peptide retrieved using HMMs, Class II; N-acetylated, C-amidated]	NA (Did not show activity upto 100 microM)	50–100* microM							
CSCC[C@H](NC(=O)[C@H](CCCNC(=N)N)NC(=O)[C@H](CCC(N)=O)NC(=O)[C@H](Cc1c[nH]c2ccccc12)NC(=O)[C@H](CO)NC(=O)[C@H](CCC(N)=O)NC(=O)[C@H](CCCCN)NC(=O)[C@H](CC(C)C)NC(=O)[C@H](CCC(=O)O)NC(=O)[C@H](CCC(=O)O)NC(=O)[C@H](CCCNC(=N)N)NC(=O)[C@H](CCCNC(=N)N)NC(=O)[C@H](CCCNC(=N)N)NC(=O)[C@H](CCCNC(=N)N)NC(C)=O)C(=O)N[C@@H](CCCNC(=N)N)C(=O)N[C@@H](CCCCN)C(=O)N[C@@H](CC(C)C)C(=O)N[C@@H](C)C(=O)N[C@@H](CC(C)C)C(=O)N[C@@H](CCCCN)C(=O)N[C@@H](CCCNC(=N)N)C(N)=O [LactP2] (Ac-RRRREELKQSWQRMRKLALKR-NH2)			50–100* microM	50 to 100	100				
WQRMRKL [LactP, N-acetylated, C-amidated]	NA (Did not show activity upto 100 microM)					lacks activity	lacks activity	NA (Did not show activity upto 100 microM)	
CSCC[C@H](NC(=O)[C@H](CCCNC(=N)N)NC(=O)[C@H](CCC(N)=O)NC(=O)[C@H](Cc1c[nH]c2ccccc12)NC(=O)[C@H](CO)NC(=O)[C@H](CCC(N)=O)NC(=O)[C@H](CCCCN)NC(C)=O)C(=O)N[C@@H](CCCNC(=N)N)C(=O)N[C@@H](CCCCN)C(=O)N[C@@H](CC(C)C)C(=O)N[C@@H](C)C(=O)N[C@@H](CC(C)C)C(=O)N[C@@H](CCCCN)C(=O)N[C@@H](CCCNC(=N)N)C(N)=O [LactP1] (Ac-KQSWQRMRKLALKR-NH2)		50–100* microM	50–100* microM		50				inhibition at 100 microM ([1]; 25922 (NCIM 2931, 18 h, 100 microM)): 50%
CC[C@H](C)[C@H](NC(=O)CNC(=O)[C@H](CC(=O)O)NC(=O)[C@H](CCCNC(=N)N)NC(=O)[C@@H](NC(=O)[C@H](CC(N)=O)NC(=O)[C@H](CCCNC(=N)N)NC(=O)CNC(=O)[C@@H](NC(=O)[C@H](CCCCN)NC(=O)[C@H](CCC(=O)O)NC(=O)[C@@H](NC(=O)[C@H](CCCCN)NC(=O)[C@H](CCCCN)NC(=O)[C@H](Cc1ccccc1)NC(=O)[C@@H](NC(=O)[C@H](CCCCN)NC(C)=O)[C@@H](C)CC)[C@@H](C)CC)C(C)C)C(C)C)C(=O)N[C@H](C(=O)N[C@@H](CCCCN)C(=O)N[C@@H](C)C(=O)NCC(=O)N1CCC[C@H]1C(=O)N[C@@H](C)C(=O)N[C@H](C(=O)N[C@@H](C)C(=O)N[C@H](C(=O)N[C@H](C(=O)N[C@@H](CCC(=O)O)C(=O)N[C@@H](CCC(N)=O)C(=O)N[C@@H](C)C(N)=O)C(C)C)C(C)C)C(C)C)[C@@H](C)CC [CecH] (Ac-KIFKKIEKVGRNVRDGIIKAGPAVAVVEQA-NH2)				3.125 to 6.25		activity similar to that of gentamycin	activity similar to that of gentamycin		MIC ([1]; 25922 (NCIM 2931, 18 h)): 6.25 to 12.5 µM
Gentamycin [reference compound]	1.56 to 3.125 µM							1.56 to 3.125 µM	
